# Laboratory results taken from ChEMBL document CHEMBL1201862, “PubChem BioAssay data set” (2004).
# Calls of active or inactive are those of the source. For most assays here, no stated cut-off is given here; in the data, actives have a measured EC50 and inactives only a lower limit.
# Columns and labels:
# [1] = molecular target: T1, Cytochrome P450 1A2 (Homo sapiens, UniProt P05177);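 further: PubChem cytochrome P450 panel assay, CYP1A2 panel member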
# T1 sequence (P05177 whole entry): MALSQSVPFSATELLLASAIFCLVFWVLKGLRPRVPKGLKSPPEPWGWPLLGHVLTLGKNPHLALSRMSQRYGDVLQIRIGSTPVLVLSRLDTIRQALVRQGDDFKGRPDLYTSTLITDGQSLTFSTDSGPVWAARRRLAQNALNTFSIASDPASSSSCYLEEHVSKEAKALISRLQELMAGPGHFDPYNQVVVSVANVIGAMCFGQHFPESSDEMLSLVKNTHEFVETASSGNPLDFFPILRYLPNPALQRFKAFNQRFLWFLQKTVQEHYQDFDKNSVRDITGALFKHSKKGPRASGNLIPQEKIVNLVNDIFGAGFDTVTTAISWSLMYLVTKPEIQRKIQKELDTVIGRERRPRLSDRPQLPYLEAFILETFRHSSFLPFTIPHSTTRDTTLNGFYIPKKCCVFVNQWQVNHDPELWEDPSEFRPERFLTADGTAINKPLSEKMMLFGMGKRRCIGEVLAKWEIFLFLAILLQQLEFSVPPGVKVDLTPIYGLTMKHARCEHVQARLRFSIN
# [2] = inhibitors of intracellular T. cruzi replication, confirmation, NIH3T3 host cells, beta-gal luminescence (AID 2044); type: functional, cell-based;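 further: intracellular parasites grown in NIH/3T3 mouse fibroblasts as host cells; luminescent beta-galactosidase reporter signal from transgenic T. cruzi replicating inside host cells; inhibitors lower the luminescence signal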
# [3] = cytotoxicity toward NIH3T3 fibroblasts, dose response, counter-screen, cell-based, ATP luminescence, mouse fibroblasts (AID 2010); type: functional;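 further: cells exposed to compound for about 90 hours before reading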
# [4] = tested on: Streptococcus sp. 'group A'; assay: growth inhibition of control SK(-) GAS strain, dose response, counter-screen for streptokinase expression inhibitor project, luminescence, kanamycin, BacTiterGlo, confirmation (AID 1900); type: functional, organism-based
# [5] = tested on: Streptococcus; assay: Group A Streptococcus viability loss, dose response, counter-screen for streptokinase expression inhibitor project, luminescence, BacTiterGlo (AID 1915); type: functional, organism-based;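 further: potency for reduction of bacterial viability or growth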
# [6] = molecular target: Paired box protein Pax-8 (Homo sapiens, UniProt Q06710); assay: inhibitors of PAX8-driven TPO luciferase reporter, dose response, RMG-I cells, cherry-pick (AID 687027); type: functional, cell-based;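 further: luciferase reporter driven by Pax8 target thyroperoxidase promoter measured by SteadyGlo luminescence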
# Sequence of Paired box protein Pax-8 (Q06710 whole entry): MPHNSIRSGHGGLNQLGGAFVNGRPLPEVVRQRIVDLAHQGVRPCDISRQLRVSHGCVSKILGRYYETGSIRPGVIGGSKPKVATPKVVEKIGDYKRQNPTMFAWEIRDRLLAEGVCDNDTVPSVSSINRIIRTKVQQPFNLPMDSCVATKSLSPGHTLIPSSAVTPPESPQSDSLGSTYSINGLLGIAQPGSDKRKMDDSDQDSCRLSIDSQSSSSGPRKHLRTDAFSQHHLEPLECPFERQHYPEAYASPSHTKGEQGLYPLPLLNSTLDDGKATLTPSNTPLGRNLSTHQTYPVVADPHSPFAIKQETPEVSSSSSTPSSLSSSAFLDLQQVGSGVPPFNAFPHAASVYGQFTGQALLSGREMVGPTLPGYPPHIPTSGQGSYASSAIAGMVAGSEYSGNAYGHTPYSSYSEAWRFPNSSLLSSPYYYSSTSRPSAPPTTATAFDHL
SMILES,EC50 [2],EC50 [3],other results
COc1cc(CNCc2cccs2)ccc1OCC(N)=O,,,AC50 [1]: 39.8 µM (inconclusive)
O=C(CSc1nc(Nc2ccccc2)nc(N2CCOCC2)n1)Nc1ccc([N+](=O)[O-])cc1,2.18 µM (active),> 60 µM (not active),
CCCCCCn1c(=O)c(C(=O)N/N=C/c2cccc(F)c2)c(O)c2ccccc21,,,EC50 [4]: 11.6 µM (active); EC50 [5]: 16.1 µM (active)
CCN1CCN(CCOc2ccc(Cl)cc2)CC1,0.176 µM (active),> 30 µM (not active),
O=C(Cn1cnc2cc([N+](=O)[O-])ccc2c1=O)Nc1ccc2c(c1)CCC2,0.5 µM (active),> 60 µM (not active),
CN(C)C(=O)c1ccc(-c2cncnc2NCc2ccccc2)cc1,,,AC50 [1]: 20 µM (inconclusive)
C[C@@H]1CCCCO[C@@H](CN(C)S(=O)(=O)c2ccc(Cl)cc2)[C@H](C)CN([C@@H](C)CO)C(=O)c2cc(NS(=O)(=O)c3ccc(Cl)cc3)ccc2O1,,,AC50 [6]: 2.78 µM (active)
COCC1=C(C(=O)OC(C)OC(=O)OC(C)C)N2C(=O)[C@@H](NC(=O)/C(=N\OC)c3csc(N)n3)[C@H]2SC1 (stereo partly specified) [CEFPODOXIME PROXETIL],,,EC50 [4]: 0.697 µM (active); EC50 [5]: 0.987 µM (active)
COc1ccc(NC(=O)c2ccc([N+](=O)[O-])cc2[N+](=O)[O-])c(OC)c1,1.16 µM (active),> 30 µM (not active),
CCCn1c(=O)n(C)c(=O)c2c(SCC(=O)NC34CC5CC(CC(C5)C3)C4)nc(CC(C)C)nc21,> 60 µM (not active),> 60 µM (not active),
Cc1nn(-c2ccccc2)c(Cl)c1C1C(C#N)=C(N)Oc2c1c(=O)oc1ccccc21 (stereo unspecified),,,EC50 [4]: 0.197 µM (active); EC50 [5]: 0.344 µM (active)
Cc1ccc2oc(=O)cc(CN3CCN(C/C=C/c4ccccc4)CC3)c2c1,0.293 µM (active),> 60 µM (not active),
COC(=O)[C@@]12C[C@@H](CC(=O)N3CCN(C(=O)c4ccco4)CC3)C(=O)N(Cc3ccco3)C1=CCC(C)(C)C2,,,AC50 [6]: 2.44 µM (active)
Cc1ccc(CN2CCN(Cc3ccccc3)CC2)cc1,0.143 µM (active),> 60 µM (not active),
O=C(O)CCN1C(=S)CSC1=S,,,AC50 [1]: 5.01 µM (inconclusive)
O=C(Nc1ccc(S(=O)(=O)N2CCc3ccccc32)cc1)c1ccc2c(c1)OCO2,3.4 µM (active),> 60 µM (not active),
C[C@H]1CCCCO[C@@H](CN(C)Cc2ccc(C(F)(F)F)cc2)[C@@H](C)CN([C@@H](C)CO)C(=O)c2cc(NS(=O)(=O)c3cccs3)ccc2O1,,,AC50 [6]: 7.2 µM (active)
Cc1noc(C)c1NC(=O)Nc1cccc2c1O[C@H](CN(C)Cc1ccc(C(F)(F)F)cc1)[C@H](C)CN([C@@H](C)CO)C2=O,,,AC50 [6]: 27.5 µM (active)
COC(=O)c1ccc(N2CCC(c3cc(-c4ccc(OC)cc4)[nH]n3)CC2)c([N+](=O)[O-])c1,,,EC50 [4]: 3.87 µM (active); EC50 [5]: 44.2 µM (active)
O=C(Nc1ccc(Br)cc1)C1CCC(=O)N1Cc1ccccc1Cl (stereo unspecified),,,AC50 [1]: 14.1 µM (inconclusive)
CC1CCN(S(=O)(=O)c2ccc(NC(=O)CN3CCN(C)CC3)cc2)CC1,0.738 µM (active),> 60 µM (not active),
COc1ccccc1NC(=O)/C=C1\SCC(=O)N1C,0.949 µM (active),> 60 µM (not active),
